Source: patent publication US5643604A, “Parenteral dosage form” (Aplicaciones Farmaceuticas S.A. De C.V., priority 1990, dated 1997)

How the values were obtained:
[1] = Comparative UV spectrophotometric analysis before and after formation of microspheres; assay type: physicochemical; conditions: starting materials (crystals) vs microspheres obtained by spray-freezing; ethanol for 17-beta-estradiol and cholesterol, 0.1N HCl for the others
Description: (§1) It is necessary to check that no chemical damage of the substances occurs during the spray-freezing process, which could modify their therapeutic properties. The starting materials (crystals) and the microspheres obtained by spray-freezing are compared by UV and IR spectrophotometry. UV spectras shall always be superimposable and IR spectras shall correspond. If differences in infrared spectras appear, it shall be checked if they are due to a polymorphism phenomenon, by means of an HPLC setup with diode-array detection. Differential thermal analysis is also used, not only to check the melting points, but also to determine if endothermic or exothermic transitions occur, due either to structure modifications or to a polymorphism, which may influence the microsphere information process, or due to heat-induced chemical reactions.
Equipment used in ultraviolet spectrography: Hewlett Packard model 8452A with photodiode arrangement and quartz cell with a beam of 0.1 cm.

[2] = Comparative infrared spectrophotometry (FT-IR, with HPLC diode-array) before and after formation of microspheres; assay type: physicochemical; conditions: after the formation of microspheres; potassium bromide dispersion
Description: as §1
Equipment used in infrared spectrophotometry: Nicolet 205 FT-IR. Dispersion medium: potassium bromide. Chromatography: HPLC device with photo diode-array detector, model Waters 990 and Nec powermate 2 workstation.

[3] = Differential thermal analysis (DSC); conditions: Shimadzu DSC 50 calorimeter
Description: as §1
Thermal analysis: Shimadzu DSC 50 calorimeter and CR4A workstation.

[4] = general statement, no test described; cited from earlier work

Structure (SMILES)	chemical modification by UV spectrophotometry [1]	chemical modification by infrared spectrophotometry [2]	degradation on differential thermograms [3]	solubility in water [4]
CCCC[N+]1(C)C2CC(OC(=O)C(CO)c3ccccc3)CC1C1OC12 (centres unmarked) [butylhioscine bromide]	no trace of modification	produces chemical modifications		
CN1C(=O)CN=C(c2ccccc2)c2cc(Cl)ccc21 [diazepam]			no degradation	
C[C@]12CC[C@@H]3c4ccc(O)cc4CC[C@H]3[C@@H]1CC[C@@H]2O [17-beta-estradiol]	no trace of modification	no modification	no degradation	
CC(C)CCC[C@@H](C)[C@H]1CC[C@H]2[C@@H]3CC=C4C[C@@H](O)CC[C@]4(C)[C@H]3CC[C@]12C [cholesterol]	no trace of modification	no modification		
CCN(CC)CCNC(=O)c1cc(Cl)c(N)cc1OC [methoclopramide]				freely soluble in water
Cn1c(=O)c2c(ncn2C)n(C)c1=O [caffeine]	no trace of modification		no degradation	
